{
  "source": "patent US20240189244A1",
  "about": "(priority 2021, published 2024)",
  "key": {"[1]": {"system": "renal proximal tubule cells (RPTCs)", "type": "cell-based, New Zealand white rabbits", "settings": "for effect of inhibitor pretreatment on DEDC(NP) uptake by RPTCs: then 0.1 mg/mL DEDC(NP)s 2 h", "method": "To assess uptake of DEDC(NP)s, RPTCs were grown in 35-mm tissue culture dishes as described above. DEDC(NP) dispersions were prepared by diluting nanoparticles into media and vortexed immediately prior to experiments. Cells were preincubated for 30 min with varying concentrations of either media or the drugs chlorpromazine hydrochloride (Sigma-Aldrich), nocodazole (Sigma-Aldrich), or simvastatin (Sigma-Aldrich). After pre-incubation, DEDC(NP)s were added at a final concentration of 0.1 mg/mL and incubated for 2 h at 37° C. Cells were washed in triplicate with media to ensure removal of nanoparticles adhered to the outer cell membrane. Cells were then fixed in 10% neutral buffered formalin and nuclei stained with 4′,6-diamidino-2-phenylindole (DAPI). Cells were imaged using the EVOS M5000 Imaging System (ThermoFisher, Waltham, MA) and fluorescence intensity was analyzed by ImageJ (NIH) (n=5 biological replicates)."}, "[2]": {"system": "renal proximal tubule cells (RPTCs)", "assay": "Cell viability by resazurin reduction assay", "settings": "formoterol 1-1000 nM, 24 hours", "procedure": "The RPTCs were cultured on 35-mm tissue culture dishes with 1:1 DMEM:F-12 (without glucose, phenol red, or sodium pyruvate) as media supplemented with 15 mM HEPES buffer, 2.5 mM L-glutamine, 1 μM pyridoxine HCL, 15 mM sodium bicarbonate, and 6 mM lactate. Daily, hydrocortisone (50 nM), selenium (5 ng/mL), human transferrin (5 μg/mL), bovine insulin (10 nM), and L-ascorbic acid-2-phosphate (50 μM) were added to fresh culture medium. Confluent cells were used for all experiments.\nCultured RPTCs were grown on 96-well plates at a cell density of 5×10^3 cells/well for 96 h. […] The treatments were each prepared by dissolving or suspending the powders in culture media. […] Viability was assessed (n=6 technical replicates per biological replicate) by resazurin reduction assay as described previously (41). Detection was assessed using Synergy H1 Multi-Mode Reader (BioTek Instruments, Inc., Winooski, VT) with 544 nm excitation and 590 nm emission wavelengths. The relative viability of the cells was calculated as follows: […]\nDetection was measured using Synergy H1 Multi-Mode Reader (BioTek Instruments, Inc., Winooski, VT) with 544 nm excitation and 590 nm emission wavelengths. Five biological replicates were used and viability of the cells was calculated as follows:"}, "[3]": {"system": "NDUFB8, SDHB, UQCRC2, ATP5A in renal cortex", "assay": "Nanoparticle dose selection: renal cortical ETC proteins after 1 week of dosing", "settings": "BTBR WT mice", "procedure": "The FFD(NP) dosage and frequency was determined using BTBR wild type mice (BTBR T^+ Itpr3^tf/J) (The Jackson Laboratory, Bar Harbor, ME). […] The Veh(Sal) group was given intraperitoneal injections of normal saline daily. The Veh(NP) group was given 60 mg/kg nanoparticles injected via lateral tail vein 2× per week. […] After eight days, mice were weighed, euthanized and kidneys were extracted and snap-frozen in liquid nitrogen.\nProtein was extracted from renal cortical tissue using radioimmunoprecipitation assay (RIPA) buffer (50 mM Tris-HCl, 150 mM NaCl, 0.1% SDS, 0.5% sodium deoxycholate and 1% Triton X-100, pH 7.4) with protease inhibitor cocktail (1:100), 1 mM sodium fluoride, and 1 mM sodium orthovanadate (Sigma Aldrich). Equal protein quantities (10 μg) were loaded onto 4-15% SDS-PAGE gels, resolved by gel electrophoresis, and then transferred onto nitrocellulose membranes. Membranes were blocked in 5% milk in tris-buffered saline/tween 20, incubated at a temperature of 4° C. for 18-24 h with primary and secondary antibodies (Abcam). Bound antibodies were visualized using enhanced chemiluminescence (Thermo Scientific, Waltham, MA) and the GE ImageQuant LAS400 Biomolecular Imaging System (GE Healthcare, Marlborough, MA)."}, "[4]": {"system": "renal proximal tubule cells (RPTCs)", "settings": "up to a concentration of 1000 nM, previous studies; cited from earlier work"}, "C57BL/6 mice": {"system": "C57BL/6 mice", "assay": "Tail cuff heart rate and blood pressure, naive mice", "settings": "1-2 hours after 0.3 mg/kg formoterol", "method": "(§1) Male C57BL/6 mice were obtained from Charles River (Oakwood, MI) and housed in a room at a constant temperature of 22+2° C. with 12:12 hour light-dark cycles. […] At 24 hours post exposure, mice were euthanized and kidney and heart were harvested. All experiments were approved by The University of Arizona in accordance with the guidelines set forth by the National Institutes of Health Guide for the Care and Use of Laboratory Animals.\n(§2) The blood pressure and heart rates were measured with a non-invasive tail cuff device (CODA8, Kent Scientific, CT) which uses a volume-pressure method as previously described (Wang Y, Thatcher S E, Cassis L A. Measuring Blood Pressure Using a Noninvasive Tail Cuff Method in Mice. Methods Mol Biol. 2017; 1614:69-73). All measurements were performed on restrained, conscious animals located on a heating pad following the manufacturers protocol. […] At least 10 valid measurements were taken per animal."}, "I/R injured mice": {"system": "I/R injured mice", "assay": "I/R AKI: cardiovascular function by tail cuff", "settings": "1-2 hours following administration", "method": "(§3) Mice were subjected to bilateral renal ischemia for 18-20 minutes or sham surgery as previously described (Funk J A, Schnellmann R G. Persistent disruption of mitochondrial homeostasis after acute kidney injury. Am J Physiol Renal Physiol 2012; 302: F853-864). Mice were allowed to recover without intervention for 24 hours and sorted into groups based on 24-hour serum creatinine levels prior to initiation of dosing. Mice were dosed either daily or at a reduced frequency at 24 hours and 96 hours post-injury (2-day dosing). […] Mice were given VS and FFD via intraperitoneal injection.\nas §2, with “Mouse” for “The”, “CT)” for “CT) which uses a volume-pressure method”, “Biol” for “Biol.”, “1614: 69-73).” for “1614:69-73).”, “manufacturer's” for “manufacturers”"}, "BTBR WT and ob/ob mice": {"system": "BTBR WT and ob/ob mice", "assay": "Diabetic mice: cardiovascular fibrosis, heart weight and survival", "method": "The efficacy of nanoparticle therapy was determined using BTBR wild type and obese diabetic mice (BTBR T^+ Itpr3^tf/J (WT) and BTBR.Cg-Lep^ob/WiscJ (ob/ob)) (The Jackson Laboratory, Bar Harbor, ME). […] Mice in the vehicle saline groups, Veh(Sal), received daily intraperitoneal injections of normal saline. Immediately following study initiation, 8 mice from both WT and ob/ob Veh(Sal) were euthanized and kidneys extracted for histological analysis. Remaining mice (n=8 per group) were treated for 8 weeks. Following the final week of treatment, mice were sacrificed and kidneys were perfused with normal saline with heparin (10 U/mL). Serum, kidneys and heart were collected for protein and histological analysis.\nCardiovascular fibrosis was measured by quantification of the fraction of trichrome-positive area in both interstitial and perivascular sections of the right ventricular wall. At least 15 sections were quantified per animal. All quantification was completed by an analyst blinded to treatment group."}, "[5]": {"system": "KIM-1, PGC-1α, ETC proteins, tight junction proteins in renal cortex", "assay": "I/R AKI: renal cortex proteins by immunoblot and KIM-1 immunohistochemistry", "type": "in vivo, C57Bl/6 mice", "settings": "144 hours, daily treatment", "method": "as §3"}, "[6]": {"system": "PGC-1α, ND1, NDUFS1 in left ventricle", "assay": "Immunoblot of mitochondrial biogenesis markers in left ventricle of naive mice", "settings": "24 hours; formoterol 0.3 mg/kg or nanoparticles 0.04 mg/kg formoterol i.v.; vs control", "method": "as §1"}, "Wistar rats": {"system": "Wistar rats", "settings": "cited from earlier work"}, "physchem": {"assay": "physchem", "settings": "for solubility at 24 h: 25 °C, thermodynamic from solid", "method": "For variable pH samples, solution pH was adjusted with either hydrochloric acid or sodium hydroxide solutions (1 M Sigma-Aldrich, St. Louis, MO). Vials were rotated gently for 24 hours at 25° C. as previously described (Aodah A, Pavlik A, Karlage K, Myrdal P B. Preformulation Studies on Piperlongumine. PLOS One. 2016; 11(3):e0151707). Test solutions were filtered using 0.45 μm PVDF or PTFE membrane filters (MilliporeSigma, Burlington, MA) for aqueous and organic solvents respectively."}, "[7]": {"settings": "ventricular wall, 8 weeks of treatment"}},
  "note": "Counter-ions that a name gives are not always drawn.",
  "data": [
    {"compound": "CN(C)CCCN1c2ccccc2Sc2ccc(Cl)cc21", "note": "[chlorpromazine, chlorpromazine hydrochloride]", "values": [
      {"measurement": "effect of inhibitor pretreatment on DEDC(NP) uptake by RPTCs", "setting": "[1]; 30 min preincubation", "result": "no observable decline in uptake"}
    ]},
    {"compound": "COc1ccc(CC(C)NCC(O)c2ccc(O)c(NC=O)c2)cc1", "note": "(centres unmarked) [formoterol, Formoterol fumarate dihydrate]", "values": [
      {"measurement": "viability of proximal tubule cells", "setting": "[2]", "result": "not significantly decreased"},
      {"measurement": "weight gain", "setting": "[3]", "result": "no differences in weight gain amongst groups"},
      {"measurement": "toxicity to RPTCs", "setting": "[4]", "result": "non-toxic"},
      {"measurement": "decrease in diastolic blood pressure", "setting": "C57BL/6 mice", "result": 19, "unit": "mmHg"},
      {"measurement": "decrease in mean arterial pressure (MAP)", "setting": "C57BL/6 mice", "result": 16, "unit": "mmHg"},
      {"measurement": "heart rate elevation above the vehicle group", "setting": "C57BL/6 mice", "result": 198, "unit": "bpm"},
      {"measurement": "heart rate increase vs vehicle", "setting": "C57BL/6 mice", "result": 65, "unit": "%"},
      {"measurement": "decrease in mean arterial pressure (MAP)", "setting": "I/R injured mice", "result": 18, "unit": "%"},
      {"measurement": "heart rate increase from VS", "setting": "I/R injured mice", "result": 1.5, "unit": "fold"},
      {"measurement": "focal myocardial fibrosis / collagen accumulation", "setting": "BTBR WT and ob/ob mice; 8 weeks of treatment", "result": "significant focal"},
      {"measurement": "probability of survival to 12 weeks of age", "setting": "BTBR WT and ob/ob mice; BTBR WT mice", "result": 38, "unit": "%"},
      {"measurement": "heart weight normalized to respective Veh(Sal) controls", "setting": "BTBR WT and ob/ob mice; BTBR WT or BTBR ob/ob", "result": 1.3, "unit": "fold"},
      {"measurement": "probability of surviving to 12 weeks of age", "setting": "BTBR WT and ob/ob mice; BTBR ob/ob mice", "result": 13, "unit": "%"},
      {"measurement": "diffuse interstitial trichrome positive area elevation", "setting": "BTBR WT and ob/ob mice; [7]", "result": 1.6, "unit": "fold"},
      {"measurement": "perivascular trichrome positive area elevation", "setting": "BTBR WT and ob/ob mice; [7]", "result": 3.7, "unit": "fold"},
      {"measurement": "claudin-5 expression", "setting": "[5]", "result": "50 % of sham"},
      {"measurement": "protein expression of mitochondrial biogenesis markers in left ventricle", "setting": "[6]", "result": "Elevated protein expression was significant"},
      {"measurement": "increase in heart rate from baseline", "setting": "Wistar rats; immediately following systemic dosing", "result": "100-150 bpm"},
      {"measurement": "mean arterial pressure (MAP)", "setting": "Wistar rats; intravenous administration, similar doses", "result": "significant decrease in mean arterial pressure"},
      {"measurement": "lowest dose at which heart rate effect was seen", "setting": "Wistar rats; rat, in vivo", "result": 3, "unit": "µg/kg"},
      {"measurement": "persistence of heart rate increase", "setting": "Wistar rats; rat, in vivo", "result": "up to 4 hours"},
      {"measurement": "solubility at 24 h", "setting": "physchem; organic solvent or mixture, Formoterol Solubility, ACN", "result": "5 ± 1", "unit": "µg/mL"},
      {"measurement": "solubility at 24 h", "setting": "physchem; organic solvent or mixture, Formoterol Solubility, Acetone", "result": "63 ± 4", "unit": "µg/mL"},
      {"measurement": "solubility at 24 h", "setting": "physchem; organic solvent or mixture, Formoterol Solubility, Chloroform", "result": "2 ± 1", "unit": "µg/mL"},
      {"measurement": "solubility at 24 h", "setting": "physchem; organic solvent or mixture, Formoterol Solubility, DCM", "result": "1 ± 0.4", "unit": "µg/mL"},
      {"measurement": "solubility at 24 h", "setting": "physchem; water, water solubility", "result": "1160 ± 20", "unit": "µg/mL"},
      {"measurement": "Formoterol Solubility", "setting": "physchem; Acetone, fumarate dihydrate", "result": "51 ± 4", "unit": "µg/mL"},
      {"measurement": "solubility in non-ionic surfactant solutions", "setting": "physchem; PVA and Pluronic F127, 0.1% to 5% in aqueous solution", "result": "remains unchanged"},
      {"measurement": "solubility in water:alcohol mixtures", "setting": "physchem; ethanol and methanol volume fraction", "result": "increased with increasing volume fraction"},
      {"measurement": "solubility in water at various pH", "setting": "physchem; pH adjusted with HCl or NaOH", "result": "increasing solubility in highly basic or acidic conditions"}
    ]},
    {"compound": "CCC(C)(C)C(=O)O[C@H]1C[C@@H](C)C=C2C=C[C@H](C)[C@H](CC[C@@H]3C[C@@H](O)CC(=O)O3)[C@H]21", "note": "[simvastatin]", "values": [
      {"measurement": "inhibitor concentration at which decrease in nanoparticle uptake starts", "setting": "[1]; 30 min preincubation", "result": 1, "unit": "µM"},
      {"measurement": "inhibitor concentration giving complete reduction in intracellular fluorescence intensity", "setting": "[1]; 30 min preincubation", "result": 100, "unit": "µM"}
    ]},
    {"compound": "CCN1C(=CC=CC=Cc2sc3ccccc3[n+]2CC)Sc2ccccc21.[I-]", "note": "[DEDC, 3,3′-diethylthiadicarbocyanine iodide]", "values": [
      {"measurement": "intracellular fluorescence in RPTCs (uptake)", "setting": "[1]; 0.1 mg/mL DEDC(NP)s or equivalent free dye, 2 h", "result": "minimal"}
    ]},
    {"compound": "COC(=O)Nc1nc2ccc(C(=O)c3cccs3)cc2[nH]1", "note": "[nocodazole]", "values": [
      {"measurement": "effect of inhibitor pretreatment on DEDC(NP) uptake by RPTCs", "setting": "[1]; 30 min preincubation", "result": "no observable decline in uptake"}
    ]}
  ]
}
